{"source": "patent US20250302816A1", "about": "“DISRUPTION OF EPITHELIAL BARRIERS FOR MOLECULAR DELIVERY ENHANCEMENT OR EXTRACTION OF EXTRACELLULAR FLUIDS” (The University of Nottingham, priority 2022, published 2025)", "key": {"[1]": {"tested_on": "Caco-2 cell layers", "assay_type": "cell-based, human", "details": "3OC12-HSL 200 μM", "description": "(§1) FIG. 3: Macromolecular therapeutics transported across Caco-2 cell layers in the absence (dashed line) and presence (line) of 3OC12-HSL transported into the basolateral chamber over a period of five hours. Permeability experiments were initiated by applying 0.5 ml of the test solutions (250 μg/ml Aflibercept/Bevacizumab/or Doxorubicin diluted in HBSS/HEPES) to the apical side of the cells (donor compartment of the Transwell) with or without 3OC12-HSL (200 μM). Drug permeability was determined by sampling the basolateral solution at regular time intervals. Data points are expressed as means±SEM, derived from three replicates in triplicate. p values of <0.05 were considered statistically significant. *, ** and *** denote p<0.05, p<0.01 and p<0.001, respectively.\nCalu-3 cells obtained from American Type Culture Collection, USA were cultured using Dulbecco's Modified Eagle Medium (DMEM) supplemented with penicillin (100 U/mL), streptomycin (0.1 mg/mL), amphotericin (0.25 μg/mL), non-essential amino acids (NEM, 1%) and Fetal Bovine Serum (FBS, 10% v/v, Sigma-Aldrich, UK). The human-derived RPE cell line ARPE-19 was obtained from American Type Culture Collection. […]\n(§2) Three polarised epithelial in-vitro tissue models, including lung epithelium (Calu-3), retinal pigment epithelium (ARPE-19) and intestinal epithelial (Caco-2) were used to study the efficiency of 200 μM 3OC12-HSL as a paracellular permeability enhancer for three different drugs: bevacizumab, aflibercept and doxorubicin (applied concentrations 250 μg/mL). The amount of drugs transported was determined via the conversion of fluorescence intensity to amount (μg or ng), using calibration curves constructed via serial standard dilutions. […]\n(§3) Permeability experiments were initiated by applying 0.5 mL of the test solutions to the apical side of the cells (donor compartment of the Transwell®). […] Drug permeability was determined by sampling the basolateral solution at regular time intervals. […]"}, "[2]": {"tested_on": "diabetic rat model with increased retinal permeability", "test": "Topical eye administration in diabetic rat model with increased vascular permeability", "assay_type": "in vivo, Norway Brown rats", "details": "topical co-application vs Bevacizumab alone"}, "[3]": {"tested_on": "Calu-3", "test": "Further in vitro Transwell studies: enhancing translocation of 4 kDa FITC-dextran", "assay_type": "cell-based, human", "description": "Exemplary molecules (a)-(1) investigated in coarse dose-response by FD4 delivery in Transwell culture (Calu-3). Each molecule was screened at 5 nM, 1 μM, 200 μM levels.\nEach compound was screened at 200 μM level.\nEach molecule was screened at 5 nM, 1 μM, 200 μM levels."}, "[4]": {"tested_on": "human primary lung epithelium", "test": "Human primary lung epithelium, air-liquid interface culture: TEER, FD4 and mAb delivery", "assay_type": "cell-based"}, "[5]": {"tested_on": "all three cell lines", "test": "MTS metabolic activity in all three cell lines", "assay_type": "cell-based, human", "details": "200 μM", "description": "The viability of Calu-3 cells was determined by a chromogenic MTS method based on the measuring of mitochondrial respiration, assessed by the reduction of 3-(4,5-dimethylthiazol-2-yl)-5-(3-carboxymethoxyphenyl)-2-(4-sulfophenyl)-2H-tetrazolium to formazan. Calu-3 cells were cultured in a 96-well plate (CellTiter 96® Aqueous, Promega) at a density of 10^4 cells per well and incubated at 37° C., 5% CO2 for 24 hours. After 24 hours, the medium was replaced with 100 μl of test compounds dissolved in HBSS and then cells were incubated for 6 hours. HBSS and Triton X-100 (0.1% v/v in HBSS) were used as the negative and positive controls respectively. Bathing solutions were then aspirated and cells washed with PBS. Then culture medium (100 μl at 37° C.) plus MTS reagent (20 μl) were added into each well and cells were incubated for 2 hours. Absorbance at 492 was measured using a Dynex absorbance microplate reader (Dynex Technologies, USA) and converted into a percentage metabolic rate.\nNo significant reduction in cell metabolic activity was observed. Cell viability of >75% was retained in all cases."}, "[6]": {"tested_on": "ARPE-19 cell layers", "test": "Transwell drug transport across ARPE-19 cell layers with or without 3OC12-HSL", "assay_type": "cell-based, human", "details": "3OC12-HSL 200 μM", "description": "as §1, with “1:” for “3:”, “ARPE-19” for “Caco-2”, “absence” for “absence (dashed line)”, “presence” for “presence (line)”\nCalu-3 cells obtained from American Type Culture Collection, USA were cultured using Dulbecco's Modified Eagle Medium (DMEM) supplemented with penicillin (100 U/mL), streptomycin (0.1 mg/mL), amphotericin (0.25 μg/mL), non-essential amino acids (NEM, 1%) and Fetal Bovine Serum (FBS, 10% v/v, Sigma-Aldrich, UK). The human-derived RPE cell line ARPE-19 was obtained from American Type Culture Collection. Cells were grown in Dulbecco's Modified Eagle Medium: F12 (1:1; Gibco, Invitrogen, Carlsbad, CA), including 10% inactivated fetal bovine serum, 100 units/mL penicillin, 100 μg/mL streptomycin, and 2 mM L-glutamine (Sigma-Aldrich). Caco-2 cells were grown in complete culture medium (DMEM supplemented with 17% FBS and 1% antibiotic-antimycotic solution). All cells were kept in a water-jacketed incubator (model 3546, Forma Scientific, Inc., Marietta, OH, USA) maintained at 37° C. and an atmosphere of humidified air with 5% CO2. Medium was replaced every other day until cells reached the 80-90% confluence desired for re-plating or culturing mature, polarised barrier models.\nWhen confluent, cells were seeded on Transwell® filters (12 mm diameter, 0.4 μm pore size; Corning Life Sciences, Holland) at 10^5 cells/cm^2. […]\nas §2, §3"}, "[7]": {"details": "doxorubicin 250 μg/ml, after 5 hours"}}, "data": [{"smiles": "CCCCCCCCCC(=O)CC(=O)N[C@H]1CCOC1=O", "note": "[Agent 3OC12-HSL, N-(3-oxododecanoyl) homoserine lactone]", "values": [{"measurement": "enhancement of aflibercept transport by 3OC12-HSL", "setting": "[1]; aflibercept 250 μg/ml", "value": 11, "unit": "fold"}, {"measurement": "enhancement of bevacizumab transport by 3OC12-HSL", "setting": "[1]; bevacizumab 250 μg/ml", "value": 8, "unit": "fold"}, {"measurement": "enhancement of doxorubicin transport by 3OC12-HSL", "setting": "[1]; [7]", "value": 19, "unit": "fold"}, {"measurement": "delivery of Bevacizumab into the posterior chamber of rat eyes (confocal images)", "setting": "[2]", "value": "significantly enhance"}, {"measurement": "Effective in enhancing translocation", "setting": "[3]", "value": "Yes"}, {"measurement": "TEER (electrical resistance) upon agent exposure", "setting": "[4]", "value": "temporarily reduced"}, {"measurement": "mAb (Mepolizumab) delivery upon agent exposure", "setting": "[4]", "value": "increased"}, {"measurement": "metabolic activity compared to the negative control", "setting": "[5]", "value": "did not change the metabolic activity"}, {"measurement": "increase of bevacizumab permeability by 3OC12-HSL", "setting": "[6]; bevacizumab 250 μg/ml, at 60 minutes of exposure", "value": 2.5, "unit": "fold"}, {"measurement": "enhancement of doxorubicin transport by 3OC12-HSL", "setting": "[6]; [7]", "value": 6, "unit": "fold"}]}]}
